# Experimental data published in patent US10478431B2, “Methods for treating a cytomegalovirus infection” (priority 2014, dated 2019).
# “Also recorded” adds a separate entry of the source. Structures can show the parent of a compound that is named as a salt.
# Key:
# [1] = tested on: CMV AD169 (a laboratory strain of HCMV); test: Human CMV viral replication kinetics in MRCS cells (TCID50, PFU/ml); assay type: cell-based, human CMV (hCMV)
# Protocol: MRCS cells were seeded into cell culture plates and maintained for 1 to 2 days until cells reached confluency at ˜5×10^4 cells per well. The monolayers were then infected with recombinant virus human CMV IE2-YFP or CMV-GFP as a control. HCMV IE2-YFP was used as the control virus for replication kinetics with the Δcrs IE2-YFP recombinant virus. Cells were infected at a multiplicity of infection (MOI) of 1, 0.2, or 0.1, as indicated. Inoculum was prepared using virus stocks diluted in culture media, and adsorbed onto cells in a volume of 200 μl for one hour at 37° C. in a humidified CO2 incubator. Inoculum was then removed and replaced with one mL of fresh media. The amount of infectious virus to prepare inoculum was based on plaque assay titrations (Bolovan-Fritts and Wiedeman, 2001) of virus stocks and is shown as time point 0 in each figure. For each time point three separate sample wells were collected. Infectious cell-free virus was collected by harvesting medium from infected culture wells at indicated time points and stored at −80° C. To measure replication, samples were thawed and prepared as a 10-fold serial dilution series in culture media, then analyzed by TCID50. The results were then converted to plaque-forming units per ml (PFU/ml). Error ranges were calculated using standard deviation.
# [2] = tested on: latent CMV in N-Tera2 cells; test: N-Tera2 latency assay (reactivation of latent CMV); assay type: cell-based, human CMV (hCMV); conditions: FIG. 4 lower panel, trihydrochloride hydrate
# Protocol: Reactivation of latent CMV in N-Tera2 cells was conducted as previously described in (Meier, 2001).
# [3] = tested on: IE2; test: Quantitative Western blot of IE2; assay type: cell-based, human CMV (hCMV); conditions: with increasing Hoechst 33258 exposure
# Protocol: Cell monolayers were rinsed in PBS buffer, and cells from each well were scraped into 50 μl A of RIPA buffer and stored at −80° C. For analysis, samples were thawed and quantitated for total protein content using a modified Lowry assay (BioRad DC protein assay kit). Equivalent amounts of total protein (10 μg) were added to appropriate volumes of 4× sample loading buffer (50 mM Tris-HCl pH 6.8, 2% sodium docecyl sulfate (SDS), 10% glycerol, 1% beta-mercaptoethanol, 12.5 mM EDTA, and 0.02% bromophenol blue) and heated at 95° C. for 5 minutes. Protein samples were loaded and separated on precast SDS polyacrylamide gel electrophoresis (PAGE) 10% or 7.5% bisacrylamide gels (BioRad). Protein transfer and blot preparation were handled as previously described (Bolovan-Fritts et al., 2004). For detection of protein bands, primary mouse monoclonal antibody against a shared epitope present in IE1 and IE2 at 1:100 (MAB810, Millipore). Beta tubulin was used as a normalization marker, and detected by a primary rabbit anti-beta tubulin antibody (926-42211, LiCor) used at a dilution of 1:2000. The secondary antibody for IE2 detection used was a donkey anti-mouse conjugated to IR dye 800CW (926-32212, LiCor) at a dilution of 1:20,000. […] Blots were scanned using a LiCor Odyssey Infrared Imaging system and software analysis for quantitation.
# [4] = tested on: Smith strain of MCMV; test: Murine CMV replication kinetics in BALB/c mice; assay type: in vivo
# Protocol: Murine CMV (MCMV) replication kinetics were performed in BALB/c mice using the Smith strain of MCMV as previously described (Orr et al., 2010) and on NIH 3T3 cells using same methods as for HCMV. Rhesus CMV (RhCMV) viral replication kinetics were performed on rhesus fibroblast cells as described in (Lilja et al., 2008).
# [5] = tested on: mCMV CRS sequence; test: bisBenzimide binding assay (fluorescence), mCMV CRS saturation curve; conditions: BB33258 titrated from 10 μM to 1 nM; FIG. 18
# Protocol: Serial dilutions for each CRS sequence were prepared. Each CRS sequence was held constant at 10 μM while BB33258 was titrated from 10 μM to 1 nM. All assays were performed at room temperature (˜25° C. in DPBS). Serial dilutions were pipetted into 96-well glass bottom plate and allowed to equilibrate for 3 hours at room temperature in the dark. Plates were then assayed for fluorescence intensity using Perkin-Elmer EnSpyre multimode plate reader. Scans from 370 nm to 580 nm for each sequence were obtained. Dilution concentrations and BB33258 combinations that saturated the PMT were excluded.
# [6] = tested on: clinically derived CMV isolate TB40E; test: HCMV TB40E virus replication and spread on epithelial cell monolayers; assay type: cell-based, human CMV (hCMV); conditions: FIG. 22
# Description: (Cells show more CPE with drug treatment and appear more distorted and larger.) Infection at MOI of 1 on confluent epithelial cell monolayers. Images on day 5, post infection.
smiles,measurement,setting,value
"CN1CCN(c2ccc3[nH]c(-c4ccc5[nH]c(-c6ccc(O)cc6)nc5c4)nc3c2)CC1 [Hoechst 33258, 2′-(4-hydroxyphenyl)-5-(4-methyl-1-piperazinyl)-2,5′-bi-1H-benzimidazole trihydrochloride hydrate]",reduction of hCMV replication,[1]; FIG. 10,more than 100 fold
same,HCMV viral replication,"[1]; MRCS cells, CMV AD169, 5, 10 or 20 μM Hoechst 33258, data in PFU/ml, FIG. 3, trihydrochloride hydrate",inhibited HCMV viral replication; also recorded: significantly reduced HCMV replication
same,reactivation of latent CMV,[2],reactivated latent CMV; also recorded: reactivation of latent HCMV
same,IE2 levels (quantitative Western blot),[3],increase
same,reduction of mCMV replication,[4],~5 fold
same,saturation of binding to mCMV CRS,[5],did not saturate within the range of concentrations tested
same,virus fitness (TB40E replication levels),"[6]; MOI of 1, confluent epithelial cell monolayers",virus fitness loss
same,cell to cell spread (IE2-YFP positive cells),"[6]; MOI of 1, images on day 5 post infection",inhibits cell to cell spread
